According to ChEMBL document CHEMBL1149774, “Synthesis of N-(5,7-diamino-3-phenyl-quinoxalin-2-yl)-3,4,5-substituted anilines and N-[4[(5,7-diamino-3-phenylquinoxalin-2-yl)amino]benzoyl]-l-glutamic acid diethyl ester: evaluation of in vitro anti-cancer and anti-folate activities” (Eur J Med Chem, 2008):

Columns and labels:
Format in all cases: functional
LOX IMVI = experiment: Growth inhibition of human LOX IMVI cells after 48 hrs by SRB staining method
NCI-H23 = experiment: Growth inhibition of human NCI-H23 cells after 48 hrs by SRB staining method; conditions: NCI-H23, 48 h
RPMI-8226 = experiment: Growth inhibition of human RPMI8226 cells after 48 hrs by SRB staining method; conditions: RPMI-8226, 48 h
NCI-H322M = experiment: Growth inhibition of human NCI-H322M cells after 48 hrs by SRB staining method
PC-3 = experiment: Growth inhibition of human PC3 cells after 48 hrs by SRB staining method; conditions: PC-3, 48 h
OVCAR-5 = experiment: Growth inhibition of human OVCAR5 cells after 48 hrs by SRB staining method; conditions: OVCAR-5, 48 h
SK-MEL-5 = experiment: Growth inhibition of human SK-MEL-5 cells after 48 hrs by SRB staining method; conditions: SK-MEL-5, 48 h
SW-620 = experiment: Growth inhibition of human SW620 cells after 48 hrs by SRB staining method; conditions: SW-620, 48 h
SK-MEL-28 = experiment: Growth inhibition of human SK-MEL-28 cells after 48 hrs by SRB staining method; conditions: SK-MEL-28, 48 h
HOP-62 = experiment: Growth inhibition of human HOP62 cells after 48 hrs by SRB staining method; conditions: HOP-62, 48 h
Malme-3M = experiment: Growth inhibition of human MALME-3M cells after 48 hrs by SRB staining method
BT-549 = experiment: Growth inhibition of human BT549 cells after 48 hrs by SRB staining method; conditions: BT-549, 48 h
NCI-H522 = experiment: Growth inhibition of human NCI-H522 cells after 48 hrs by SRB staining method; conditions: NCI-H522, 48 h
OVCAR-8 = experiment: Growth inhibition of human OVCAR8 cells after 48 hrs by SRB staining method; conditions: OVCAR-8, 48 h
A549 = experiment: Growth inhibition of human A549 cells after 48 hrs by SRB staining method; conditions: A549, 48 h
MDA-MB-231 = experiment: Growth inhibition of human MDA-MB-231 cells after 48 hrs by SRB staining method; conditions: MDA-MB-231, 48 h
786-0 = experiment: Growth inhibition of human 786-0 cells after 48 hrs by SRB staining method; conditions: 786-0, 48 h
MCF7 = experiment: Growth inhibition of human MCF7 cells after 48 hrs by SRB staining method; conditions: MCF7, 48 h
SK-MEL-2 = experiment: Growth inhibition of human SK-MEL-2 cells after 48 hrs by SRB staining method; conditions: SK-MEL-2, 48 h
HCT-15 = experiment: Growth inhibition of human HCT15 cells after 48 hrs by SRB staining method; conditions: HCT-15, 48 h
NCI-H460 = experiment: Growth inhibition of human NCI-H460 cells after 48 hrs by SRB staining method; conditions: NCI-H460, 48 h
OVCAR-3 = experiment: Growth inhibition of human OVCAR-3 cells after 48 hrs by SRB staining method; conditions: OVCAR-3, 48 h
OVCAR-4 = experiment: Growth inhibition of human OVCAR4 cells after 48 hrs by SRB staining method; conditions: OVCAR-4, 48 h
KM12 = experiment: Growth inhibition of human KM12 cells after 48 hrs by SRB staining method; conditions: KM12, 48 h
UO-31 = experiment: Growth inhibition of human UO31 cells after 48 hrs by SRB staining method; conditions: UO-31, 48 h
SF-295 = experiment: Growth inhibition of human SF295 cells after 48 hrs by SRB staining method; conditions: SF-295, 48 h
EKVX = experiment: Growth inhibition of human EKVX cells after 48 hrs by SRB staining method
HCT-116 = experiment: Growth inhibition of human HCT116 cells after 48 hrs by SRB staining method; conditions: HCT-116, 48 h
U-251 = experiment: Growth inhibition of human U251 cells after 48 hrs by SRB staining method; conditions: U-251, 48 h
SK-OV-3 = experiment: Growth inhibition of human SKOV3 cells after 48 hrs by SRB staining method; conditions: SK-OV-3, 48 h
[1] = read-out: pLC50 (the source's name) (converted)

Q: With `CCOC(=O)CCC(NC(=O)c1ccc(Nc2nc3cc(N)cc(N)c3nc2-c2ccccc2)cc1)C(=O)OCC` (stereo not given) as the molecule, how does the GI50 (LOX IMVI) read?
A: The GI50 was 8.51 µM.

Q: What about the LC50 (LOX IMVI) of the same molecule?
A: Its LC50 is over 100 µM.

Q: What about the TGI (LOX IMVI; read-out: pTGI (converted)) of the same molecule?
A: Its TGI is over 100 µM.

Q: And the GI50 (NCI-H23)?
A: The GI50 was 18.6 µM.

Q: And the LC50 (NCI-H23)?
A: The LC50 was over 100 µM.

Q: What about the TGI (NCI-H23; read-out: pTGI (converted)) of the same molecule?
A: The TGI was 55 µM.

Q: What about the GI50 (RPMI-8226) of the same molecule?
A: The GI50 was 3.16 µM.

Q: And the CC50 (RPMI-8226; [1])?
A: The CC50 was over 100 µM.

Q: What about the TGI (RPMI-8226; read-out: pTGI (converted)) of the same molecule?
A: Its TGI is over 100 µM.

Q: What about the GI50 (NCI-H322M) of the same molecule?
A: Its GI50 is 41.7 µM.

Q: And the LC50 (NCI-H322M)?
A: Its LC50 is over 100 µM.

Q: What about the TGI (NCI-H322M; read-out: pTGI (converted)) of the same molecule?
A: Its TGI is over 100 µM.

Q: What about the GI50 (PC-3) of the same molecule?
A: Its GI50 is 21.4 µM.

Q: And the CC50 (PC-3; [1])?
A: Its CC50 is over 100 µM.

Q: And the TGI (PC-3; read-out: pTGI (converted))?
A: The TGI was 91.2 µM.

Q: What about the GI50 (OVCAR-5) of the same molecule?
A: Its GI50 is 34.7 µM.

Q: What about the LC50 (OVCAR-5) of the same molecule?
A: Its LC50 is over 100 µM.

Q: What about the TGI (OVCAR-5; read-out: pTGI (converted)) of the same molecule?
A: Its TGI is 87.1 µM.

Q: What about the GI50 (SK-MEL-5) of the same molecule?
A: The GI50 was 6.61 µM.

Q: What about the LC50 (SK-MEL-5) of the same molecule?
A: Its LC50 is over 100 µM.

Q: And the TGI (SK-MEL-5; read-out: pTGI (converted))?
A: The TGI was 31.6 µM.

Q: And the GI50 (SW-620)?
A: Its GI50 is 40.7 µM.

Q: And the CC50 (SW-620; [1])?
A: The CC50 was over 100 µM.

Q: What about the TGI (SW-620; read-out: pTGI (converted)) of the same molecule?
A: The TGI was over 100 µM.

Q: What about the GI50 (SK-MEL-28) of the same molecule?
A: The GI50 was 1.51 µM.

Q: What about the CC50 (SK-MEL-28; [1]) of the same molecule?
A: The CC50 was 5.89 µM.

Q: What about the TGI (SK-MEL-28; read-out: pTGI (converted)) of the same molecule?
A: Its TGI is 3.02 µM.

Q: What about the GI50 (HOP-62) of the same molecule?
A: Its GI50 is 19.5 µM.

Q: And the LC50 (HOP-62)?
A: The LC50 was 81.3 µM.

Q: And the TGI (HOP-62; read-out: pTGI (converted))?
A: The TGI was 39.8 µM.

Q: What about the GI50 (Malme-3M) of the same molecule?
A: Its GI50 is 2.82 µM.

Q: What about the LC50 (Malme-3M) of the same molecule?
A: Its LC50 is over 100 µM.

Q: And the TGI (Malme-3M; read-out: pTGI (converted))?
A: The TGI was 6.17 µM.

Q: And the GI50 (BT-549)?
A: The GI50 was 41.7 µM.

Q: What about the CC50 (BT-549; [1]) of the same molecule?
A: Its CC50 is over 100 µM.

Q: What about the TGI (BT-549; read-out: pTGI (converted)) of the same molecule?
A: The TGI was over 100 µM.

Q: And the GI50 (NCI-H522)?
A: Its GI50 is 27.5 µM.

Q: And the LC50 (NCI-H522)?
A: Its LC50 is over 100 µM.

Q: What about the TGI (NCI-H522; read-out: pTGI (converted)) of the same molecule?
A: Its TGI is over 100 µM.

Q: And the GI50 (OVCAR-8)?
A: The GI50 was 33.9 µM.

Q: What about the CC50 (OVCAR-8; [1]) of the same molecule?
A: The CC50 was over 100 µM.

Q: And the TGI (OVCAR-8; read-out: pTGI (converted))?
A: Its TGI is over 100 µM.

Q: What about the GI50 (A549) of the same molecule?
A: The GI50 was 20 µM.

Q: What about the CC50 (A549; [1]) of the same molecule?
A: Its CC50 is over 100 µM.

Q: What about the TGI (A549; read-out: pTGI (converted)) of the same molecule?
A: The TGI was over 100 µM.

Q: What about the GI50 (MDA-MB-231) of the same molecule?
A: The GI50 was 8.91 µM.

Q: And the CC50 (MDA-MB-231; [1])?
A: Its CC50 is 81.3 µM.

Q: What about the TGI (MDA-MB-231; read-out: pTGI (converted)) of the same molecule?
A: The TGI was 28.2 µM.

Q: And the GI50 (786-0)?
A: The GI50 was 17.8 µM.

Q: What about the CC50 (786-0; [1]) of the same molecule?
A: Its CC50 is 77.6 µM.

Q: What about the TGI (786-0; read-out: pTGI (converted)) of the same molecule?
A: Its TGI is 37.2 µM.

Q: And the GI50 (MCF7)?
A: The GI50 was 29.5 µM.

Q: And the CC50 (MCF7; [1])?
A: Its CC50 is over 100 µM.

Q: What about the TGI (MCF7; read-out: pTGI (converted)) of the same molecule?
A: Its TGI is over 100 µM.

Q: And the GI50 (SK-MEL-2)?
A: Its GI50 is 7.76 µM.

Q: And the LC50 (SK-MEL-2)?
A: Its LC50 is over 100 µM.

Q: And the TGI (SK-MEL-2; read-out: pTGI (converted))?
A: Its TGI is 74.1 µM.

Q: And the GI50 (HCT-15)?
A: Its GI50 is 23.4 µM.

Q: What about the LC50 (HCT-15) of the same molecule?
A: The LC50 was over 100 µM.

Q: What about the TGI (HCT-15; read-out: pTGI (converted)) of the same molecule?
A: The TGI was over 100 µM.

Q: And the GI50 (NCI-H460)?
A: The GI50 was 8.51 µM.

Q: And the LC50 (concentration killing 50% of cells) (NCI-H460)?
A: The LC50 (concentration killing 50% of cells) was over 100 µM.

Q: And the TGI (NCI-H460; read-out: pTGI (converted))?
A: The TGI was 47.9 µM.

Q: What about the GI50 (OVCAR-3) of the same molecule?
A: The GI50 was 8.51 µM.

Q: And the LC50 (OVCAR-3)?
A: Its LC50 is over 100 µM.

Q: What about the TGI (OVCAR-3; read-out: pTGI (converted)) of the same molecule?
A: The TGI was 31.6 µM.

Q: And the GI50 (OVCAR-4)?
A: The GI50 was 26.9 µM.

Q: And the LC50 (OVCAR-4)?
A: The LC50 was over 100 µM.

Q: And the TGI (OVCAR-4; read-out: pTGI (converted))?
A: The TGI was over 100 µM.

Q: What about the GI50 (KM12) of the same molecule?
A: The GI50 was 28.2 µM.

Q: And the LC50 (KM12)?
A: The LC50 was over 100 µM.

Q: What about the TGI (KM12; read-out: pTGI (converted)) of the same molecule?
A: Its TGI is over 100 µM.

Q: And the GI50 (UO-31)?
A: Its GI50 is 21.9 µM.

Q: And the CC50 (UO-31; [1])?
A: The CC50 was over 100 µM.

Q: What about the TGI (UO-31; read-out: pTGI (converted)) of the same molecule?
A: Its TGI is 75.9 µM.

Q: What about the GI50 (SF-295) of the same molecule?
A: The GI50 was 17.8 µM.

Q: And the LC50 (SF-295)?
A: Its LC50 is over 100 µM.

Q: And the TGI (SF-295; read-out: pTGI (converted))?
A: The TGI was 43.7 µM.

Q: What about the GI50 (EKVX) of the same molecule?
A: The GI50 was 28.8 µM.

Q: And the CC50 (EKVX; [1])?
A: Its CC50 is over 100 µM.

Q: And the TGI (EKVX; read-out: pTGI (converted))?
A: Its TGI is over 100 µM.

Q: What about the GI50 (HCT-116) of the same molecule?
A: Its GI50 is 15.1 µM.

Q: What about the LC50 (HCT-116) of the same molecule?
A: Its LC50 is over 100 µM.

Q: What about the TGI (HCT-116; read-out: pTGI (converted)) of the same molecule?
A: The TGI was 51.3 µM.

Q: And the GI50 (U-251)?
A: The GI50 was 20 µM.

Q: And the LC50 (50% lethal concentration) (U-251)?
A: The LC50 (50% lethal concentration) was 95.5 µM.

Q: What about the TGI (U-251; read-out: pTGI (converted)) of the same molecule?
A: The TGI was 43.7 µM.

Q: And the GI50 (SK-OV-3)?
A: Its GI50 is 21.9 µM.

Q: What about the CC50 (SK-OV-3; [1]) of the same molecule?
A: The CC50 was over 100 µM.

Q: And the TGI (SK-OV-3; read-out: pTGI (converted))?
A: Its TGI is 47.9 µM.
